Data taken from ChEMBL document CHEMBL4004829, “Synthesis and antiproliferative activity of a series of novel 6-substituted pyrido[3,2-d]pyrimidines as potential nonclassical lipophilic antifolates targeting dihydrofolate reductase” (Eur J Med Chem, 2017).

Experiments:
[1] = tested on: HL-60; assay: Antiproliferative activity against human HL60 cells after 48 hrs by MTS assay; format: functional, cell-based; conditions: HL-60, 48 h
[2] = tested on: HeLa; assay: cells; conditions: Homo sapiens, 48 h
Description: Antiproliferative activity against human HeLa cells after 48 hrs by MTS assay

[3] = tested on: NCI-H1299; assay: Antiproliferative activity against human NCI-H1299 cells after 48 hrs by MTS assay; format: functional, cell-based; conditions: NCI-H1299, 48 h
[4] = tested on: A549; assay: Antiproliferative activity against human A549 cells after 48 hrs by MTS assay; format: functional, cell-based; conditions: A549, 48 h
[5] = biological target: T1, Dihydrofolate reductase (Homo sapiens, UniProt P00374); assay: Inhibition of recombinant human DHFR using dihydrofolate as substrate after 15 mins in presence of NADPH
T1 sequence (P00374 whole entry): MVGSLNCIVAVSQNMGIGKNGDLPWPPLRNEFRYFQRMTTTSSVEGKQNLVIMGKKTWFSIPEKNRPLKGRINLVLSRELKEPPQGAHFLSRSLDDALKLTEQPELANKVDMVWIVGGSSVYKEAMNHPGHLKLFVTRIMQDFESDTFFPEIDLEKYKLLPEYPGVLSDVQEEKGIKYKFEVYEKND

[6] = tested on: HL-60; assay: Cell cycle arrest in human HL60 cells assessed as S phase at 0.1 uM after 24 hrs by propidium iodide staining based flow cytometry (reference value: 58.7 +/- 0.8%); format: functional
[7] = tested on: HL-60; assay: Cell cycle arrest in human HL60 cells assessed as S phase at 0.2 uM after 24 hrs by propidium iodide staining based flow cytometry (reference value: 58.7 +/- 0.8%); format: functional
[8] = tested on: HL-60; assay: Cell cycle arrest in human HL60 cells assessed as G1 phase at 0.4 uM after 24 hrs by propidium iodide staining based flow cytometry (reference value: 29.1 +/- 0.5%); format: functional
[9] = tested on: HL-60; assay: Cell cycle arrest in human HL60 cells assessed as S phase at 0.8 uM after 24 hrs by propidium iodide staining based flow cytometry (reference value: 58.7 +/- 0.8%); format: functional
[10] = tested on: HL-60; assay: Cell cycle arrest in human HL60 cells assessed as G1 phase at 0.1 uM after 24 hrs by propidium iodide staining based flow cytometry (reference value: 29.1 +/- 0.5%); format: functional
[11] = tested on: HL-60; assay: Cell cycle arrest in human HL60 cells assessed as S phase at 0.4 uM after 24 hrs by propidium iodide staining based flow cytometry (reference value: 58.7 +/- 0.8%); format: functional
[12] = tested on: HL-60; assay: Cell cycle arrest in human HL60 cells assessed as G1 phase at 0.2 uM after 24 hrs by propidium iodide staining based flow cytometry (reference value: 29.1 +/- 0.5%); format: functional
[13] = tested on: HL-60; assay: Cell cycle arrest in human HL60 cells assessed as G2/M phase at 0.2 uM after 24 hrs by propidium iodide staining based flow cytometry (reference value: 12.2 +/- 1.1%); format: functional
[14] = tested on: HL-60; assay: Cell cycle arrest in human HL60 cells assessed as G2/M phase at 0.4 uM after 24 hrs by propidium iodide staining based flow cytometry (reference value: 12.2 +/- 1.1%); format: functional
[15] = tested on: HL-60; assay: Cell cycle arrest in human HL60 cells assessed as G1 phase at 0.8 uM after 24 hrs by propidium iodide staining based flow cytometry (reference value: 29.1 +/- 0.5%); format: functional
[16] = tested on: HL-60; assay: Cell cycle arrest in human HL60 cells assessed as G1 phase at 0.05 uM after 24 hrs by propidium iodide staining based flow cytometry (reference value: 29.1 +/- 0.5%); format: functional
[17] = tested on: HL-60; assay: Cell cycle arrest in human HL60 cells assessed as G2/M phase at 0.05 uM after 24 hrs by propidium iodide staining based flow cytometry (reference value: 12.2 +/- 1.1%); format: functional
[18] = tested on: HL-60; assay: Cell cycle arrest in human HL60 cells assessed as G2/M phase at 0.1 uM after 24 hrs by propidium iodide staining based flow cytometry (reference value: 12.2 +/- 1.1%); format: functional
[19] = tested on: HL-60; assay: Cell cycle arrest in human HL60 cells assessed as S phase at 0.05 uM after 24 hrs by propidium iodide staining based flow cytometry (reference value: 58.7 +/- 0.8%); format: functional
[20] = tested on: HL-60; assay: Cell cycle arrest in human HL60 cells assessed as G2/M phase at 0.8 uM after 24 hrs by propidium iodide staining based flow cytometry (reference value: 12.2 +/- 1.1%); format: functional

SMILES	IC50 [1] [µM]	IC50 [2] [µM]	IC50 [3] [µM]	IC50 [4] [µM]	IC50 [5] [µM]	other results
COc1ccccc1CCc1ccc2nc(N)nc(N)c2n1	0.8	10.4	4.73	29.9	1.67	
Nc1nc(N)c2nc(/C=C/c3ccc(Cl)cc3)ccc2n1	3.8	7.6	9.39	8.17	16.9	
Cc1ccc(CCc2ccc3nc(N)nc(N)c3n2)cc1	0.31	52.4	1.61	34.1	2.55	
CC(C)c1ccc(/C=C/c2ccc3nc(N)nc(N)c3n2)cc1	1.04	10.5	11.2	10.7	20.1	
Nc1nc(N)c2nc(CCc3ccc(F)cc3)ccc2n1	0.58	54	14.8	4.98	0.95	
Cc1ccc(/C=C/c2ccc3nc(N)nc(N)c3n2)cc1	4.54	14.5		18.9	3.19	
Nc1nc(N)c2nc(CCc3ccc(Cl)cc3)ccc2n1	0.27	5.3	1.06	16.3	2.84	
CCc1ccc(CCc2ccc3nc(N)nc(N)c3n2)cc1	0.21	49.4	2.76	15.4	2.48	
Nc1nc(N)c2nc(CCc3ccccc3)ccc2n1	0.36	8.61	9.16	9.78	2.25	
CCc1ccc(/C=C/c2ccc3nc(N)nc(N)c3n2)cc1	1.19	9.86	4.86	9.13	5.28	
Nc1nc(N)c2nc(/C=C/c3ccc(F)cc3)ccc2n1	2.61	7.98	5.99	6.78	4.78	
O=c1[nH]cc(F)c(=O)[nH]1 [FLUOROURACIL]	1.62	62.2	8.91			
COc1cccc(/C=C/c2ccc3nc(N)nc(N)c3n2)c1	2.03	18.8	12.2	9.1	4.13	
CC(C)c1ccc(CCc2ccc3nc(N)nc(N)c3n2)cc1	0.49	14		15.9	19	
COc1cccc(CCc2ccc3nc(N)nc(N)c3n2)c1	0.42	14.3	7.03	14.4	0.45	
COc1ccccc1/C=C/c1ccc2nc(N)nc(N)c2n1	3.6	13.8	8.63	7.56	3.61	
COc1cc(CCc2ccc3nc(N)nc(N)c3n2)cc(OC)c1OC	0.42	2.9	2.17	11.6	0.29	Activity [6]: 64.3%; Activity [7]: 73.2%; Activity [8]: 18%; Activity [9]: 88.5%; Activity [10]: 25.7%; Activity [11]: 77.6%; Activity [12]: 20.2%; Activity [13]: 6.6%; Activity [14]: 4.4%; Activity [15]: 10%; Activity [16]: 26.3%; Activity [17]: 10.7%; Activity [18]: 10%; Activity [19]: 63%; Activity [20]: 1.5%
COc1ccc(/C=C/c2ccc3nc(N)nc(N)c3n2)cc1	1.63	6.5	3.73	5.68	4.34	
Nc1nc(N)c2nc(/C=C/c3ccc(Br)cc3)ccc2n1	2.51	9.2	6.19	11.9	14.8	
Nc1nc(N)c2nc(CCc3ccc(Br)cc3)ccc2n1	0.12	4.3	1.49	22.6	1.26	
COc1ccc(CCc2ccc3nc(N)nc(N)c3n2)cc1	0.072	10.5	2.15	18	0.71	
Nc1nc(N)c2nc(/C=C/c3ccccc3)ccc2n1	3.85	13.4	15.2	13.9	5.33	
COc1cc(/C=C/c2ccc3nc(N)nc(N)c3n2)cc(OC)c1OC	2.33	2.1	3.99	5.34	4	
